Source: PubChem BioAssay AID328 (DTP/NCI, 2004)
“And” between values parts separate entries of the source, which are not always exact repeats. Equal values may be shown once. Toxic doses and inconclusive results are not listed. How the source made its calls: active means survival T/C of 150% or more; inactive means T/C below 125% in these data.

Tested on: BDF1 mice, P388 leukemia ip, median survival T/C
Assay: NCI In Vivo Anticancer Drug Screen. Data for tumor model P388 Leukemia (intraperitoneal) in B6D2F1 (BDF1) mice
Conditions: endpoint: median survival time, higher = longer survival
Method in brief: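 In tumour-bearing mice, survival after compound treatment is set against the vehicle group and given as a quotient.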

[1] = dose: 100.0 mg/kg/injection, schedule: Q01DX009 (ip), vehicle: water
[2] = dose: 100.0 mg/kg/injection, schedule: Q04DX003 (ip), vehicle: water
[3] = dose: 200.0 mg/kg/injection, schedule: Q04DX003 (ip), vehicle: water
[4] = dose: 400.0 mg/kg/injection, schedule: Q04DX003 (ip), vehicle: water
[5] = dose: 100.0 mg/kg/injection, schedule: Q04DX003 (ip), vehicle: Klucel (hydroxypropylcellulose) (HPC)
[6] = dose: 200.0 mg/kg/injection, schedule: Q04DX003 (ip), vehicle: Klucel (hydroxypropylcellulose) (HPC)
[7] = dose: 12.5 mg/kg/injection, schedule: Q01DX009 (ip), vehicle: water
[8] = dose: 25.0 mg/kg/injection, schedule: Q01DX009 (ip), vehicle: water
[9] = dose: 50.0 mg/kg/injection, schedule: Q01DX009 (ip), vehicle: water
[10] = dose: 50.0 mg/kg/injection, schedule: Q04DX003 (ip), vehicle: water
[11] = dose: 50.0 mg/kg/injection, schedule: Q01DX009 (ip), vehicle: saline with Tween-80
[12] = dose: 100.0 mg/kg/injection, schedule: Q01DX009 (ip), vehicle: saline with Tween-80
[13] = dose: 100.0 mg/kg/injection, schedule: Q04DX003 (ip), vehicle: saline with Tween-80
[14] = dose: 200.0 mg/kg/injection, schedule: Q04DX003 (ip), vehicle: saline with Tween-80
[15] = dose: 25.0 mg/kg/injection, schedule: Q04DX003 (ip), vehicle: saline with Tween-80
[16] = dose: 50.0 mg/kg/injection, schedule: Q04DX003 (ip), vehicle: saline with Tween-80
[17] = dose: 400.0 mg/kg/injection, schedule: Q04DX003 (ip), vehicle: saline with Tween-80
[18] = dose: 200.0 mg/kg/injection, schedule: Q01DX009 (ip), vehicle: saline with Tween-80
[19] = dose: 400.0 mg/kg/injection, schedule: Q01DX009 (ip), vehicle: saline with Tween-80

Measured: T/C

CCSc1ncc(C)c(Cl)n1
inactive: [1] 107 % of control | [2] 105 % of control | dose: 200.0 mg/kg/injection, schedule: Q01DX009 (ip), vehicle: water 99 % of control | [3] 107 % of control | dose: 400.0 mg/kg/injection, schedule: Q01DX009 (ip), vehicle: water 108 % of control | [4] 103 % of control

Cc1ccccc1-n1c(C)nc2ccccc2c1=O
inactive: dose: 12.5 mg/kg/injection, schedule: Q01DX009 (ip), vehicle: Klucel (hydroxypropylcellulose) (HPC) 100 % of control | dose: 25.0 mg/kg/injection, schedule: Q01DX009 (ip), vehicle: Klucel (hydroxypropylcellulose) (HPC) 96 % of control | dose: 50.0 mg/kg/injection, schedule: Q01DX009 (ip), vehicle: Klucel (hydroxypropylcellulose) (HPC) 92 % of control | [5] 104 % of control | [6] 91 % of control

COc1ccc(C2=CC(c3ccc4c(c3)OCO4)c3c(c4ccccc4oc3=O)O2)cc1OC (stereo unspecified)
inactive: [7] 96 % of control | [8] 106 % of control | [9] 102 % of control | [10] 101 % of control | [1] 93 % of control | [2] 110 % of control | [3] 94 % of control | [4] 94 % of control

CC1(c2ccco2)C(=O)NC(=O)N1C(=O)CCl (stereo unspecified)
inactive: [11] 100 % of control | [12] 100 % of control | [13] 96 % of control | [14] 96 % of control

COB(OC)OC
inactive: [5] 91 % of control | [6] 104 % of control | dose: 400.0 mg/kg/injection, schedule: Q04DX003 (ip), vehicle: Klucel (hydroxypropylcellulose) (HPC) 91 % of control

Fc1nc2nc(C(F)(F)F)[nH]c2nc1F
inactive: dose: 10.0 mg/kg/injection, schedule: Q01DX009 (ip), vehicle: saline with Tween-80 104 % of control | dose: 20.0 mg/kg/injection, schedule: Q01DX009 (ip), vehicle: saline with Tween-80 121 % of control | [15] 105 % of control | dose: 40.0 mg/kg/injection, schedule: Q01DX009 (ip), vehicle: saline with Tween-80 120 % of control | [16] 99 % of control | dose: 80.0 mg/kg/injection, schedule: Q01DX009 (ip), vehicle: saline with Tween-80 112 % of control | [13] 90 % of control and 105 % of control | dose: 160.0 mg/kg/injection, schedule: Q01DX009 (ip), vehicle: saline with Tween-80 112 % of control

C#CC1(O)CC[C@H]2[C@@H]3CCC4=CCCC[C@@H]4[C@H]3CC[C@@]21C (stereo partly specified)
inactive: dose: 100.0 mg/kg/injection, schedule: Q01DX009 (ip), vehicle: saline 95 % of control | dose: 100.0 mg/kg/injection, schedule: Q04DX003 (ip), vehicle: alcohol 100 % of control | dose: 200.0 mg/kg/injection, schedule: Q01DX009 (ip), vehicle: saline 90 % of control | dose: 200.0 mg/kg/injection, schedule: Q04DX003 (ip), vehicle: alcohol 95 % of control | dose: 400.0 mg/kg/injection, schedule: Q01DX009 (ip), vehicle: saline 86 % of control | dose: 400.0 mg/kg/injection, schedule: Q04DX003 (ip), vehicle: alcohol 105 % of control

COC(OC)c1[nH]c(=S)[nH]c(=O)c1Cc1cc([N+](=O)[O-])ccc1O
inactive: [15] 104 % of control | [16] 108 % of control | [13] 95 % of control | [14] 104 % of control | [17] 90 % of control

COc1c2c(c(OC)c3ccccc13)C(=O)c1ccccc1C2=O
inactive: dose: 25.0 mg/kg/injection, schedule: Q01DX005 (ip), vehicle: saline 115 % of control | dose: 50.0 mg/kg/injection, schedule: Q01DX005 (ip), vehicle: saline 87 % of control | dose: 100.0 mg/kg/injection, schedule: Q01DX005 (ip), vehicle: saline 95 % of control | dose: 200.0 mg/kg/injection, schedule: Q01DX005 (ip), vehicle: saline 93 % of control

CC(=O)Nc1cscc1NC(C)=O
inactive: [11] 110 % of control and 123 % of control | [12] 119 % of control and 123 % of control | [18] 123 % of control

c1ccc2cc3c(cc2c1)Nc1cc2ccccc2cc1N3
inactive: [12] 96 % of control | [13] 100 % of control | [18] 103 % of control | [14] 100 % of control | [19] 100 % of control | [17] 108 % of control

Cc1ccc(CC(=O)O)cc1C
inactive: dose: 44.0 mg/kg/injection, schedule: Q04DX003 (ip), vehicle: saline with Tween-80 109 % of control | dose: 66.0 mg/kg/injection, schedule: Q04DX003 (ip), vehicle: saline with Tween-80 104 % of control | [13] 104 % of control | dose: 150.0 mg/kg/injection, schedule: Q04DX003 (ip), vehicle: saline with Tween-80 104 % of control

C(=NCCN=Cc1c[nH]c2ccccc12)c1c[nH]c2ccccc12
inactive: [16] 111 % of control | [12] 88 % of control | [13] 103 % of control | [18] 92 % of control | [14] 100 % of control | [19] 103 % of control

COc1ccc(N=Cc2cccs2)cc1
inactive: [12] 119 % of control | [18] 96 % of control | [19] 100 % of control

O=C1c2ccccc2-c2cc3ccccc3cc21
inactive: dose: 75.0 mg/kg/injection, schedule: Q04DX003 (ip), vehicle: saline sonified 100 % of control | dose: 150.0 mg/kg/injection, schedule: Q04DX003 (ip), vehicle: saline sonified 110 % of control | dose: 300.0 mg/kg/injection, schedule: Q04DX003 (ip), vehicle: saline sonified 110 % of control

CCCC(=O)Nc1ccc([N+](=O)[O-])cc1OC
inactive: [12] 90 % of control | [18] 100 % of control | [19] 100 % of control

c1cc[c]([Pb]([c]2ccccc2)[c]2ccccc2)cc1.c1cc[c]([Pb]([c]2ccccc2)[c]2ccccc2)cc1
inactive: dose: 3.13 mg/kg/injection, schedule: Q01DX009 (ip), vehicle: saline with Tween-80 109 % of control | dose: 6.25 mg/kg/injection, schedule: Q01DX009 (ip), vehicle: saline with Tween-80 104 % of control | dose: 12.5 mg/kg/injection, schedule: Q01DX009 (ip), vehicle: saline with Tween-80 101 % of control | dose: 25.0 mg/kg/injection, schedule: Q01DX009 (ip), vehicle: saline with Tween-80 104 % of control

COc1cc2c(cc1OC)[C@H]1Cc3cc(OC)c(OC)cc3[C@@H](C2)N1C(C)=O
inactive: dose: 50.0 mg/kg/injection, schedule: Q01DX005 (ip), vehicle: saline with Tween-80 91 % of control | dose: 100.0 mg/kg/injection, schedule: Q01DX005 (ip), vehicle: saline with Tween-80 91 % of control | dose: 200.0 mg/kg/injection, schedule: Q01DX005 (ip), vehicle: saline with Tween-80 93 % of control

FC(F)(F)c1nc[nH]c1C(F)(F)F
inactive: dose: 3.12 mg/kg/injection, schedule: Q01DX009 (ip), vehicle: water 99 % of control | dose: 6.25 mg/kg/injection, schedule: Q01DX009 (ip), vehicle: water 90 % of control | [7] 91 % of control | [8] 99 % of control | [9] 89 % of control | [10] 98 % of control | [2] 104 % of control
